Patent US20260216348A1, “IRAK DEGRADATION AGENT AND USE THEREOF” (Increland, priority 2023, published 2026)

Tests used:
[1] = system: IMQ psoriasis model; assay: IMQ (imiquimod)-induced psoriasis model; assay type: in vivo, BALB/c mice; conditions: Mean ± SD, n = 7; for PASI Score d 6: Model 8.85 ± 1.66; for ΔSkin Thickness Change (μm) d 6: Model 80.95 ± 6.16
Procedure: Male BALB/c mice, aged 6-8 weeks, were randomly divided into 9 groups after 1 week of acclimatization: blank control group, imiquimod model group (IMQ group, corresponding to the model groups in FIGS. 1 and 2), clobetasol propionate cream group (CLO group), TYKI (BMS-986165) group, IRAK4 protein degrader KT-474 (from patent WO2020113233) group (100 mg/kg), and the compound of the present disclosure (at an appropriate dose), with 6-7 mice in each group. One day before modeling, the hair on the backs of the mice was removed with depilatory cream, with a depilated area of 2×2 cm^2. On the day of modeling, IMQ cream was used for modeling, and the corresponding drugs were administered intragastrically for treatment. The compound of the present disclosure (at an appropriate dose) was administered intragastrically once daily, and IMQ cream was applied to the hairless area on the back and left ear of mice 2 h after the first administration. […] The blank group and the IMQ group were administered with vehicle intragastrically twice daily (in the morning and evening), with an 8-h interval between the two intragastric administrations. At 2 h after the first intragastric administration, vaseline and IMQ cream were applied topically to the depilated back and ears of the mice, respectively. The dosage of IMQ cream administered to the depilated area on the back and the left ear was 80 mg and 10 mg, respectively, and the mice in each group were administered the cream for 5 consecutive days.
Reference was made to the Psoriasis Area and Severity Index (PASI) scoring criteria. The psoriasis, erythema, and thickness of skin lesions on the back were scored from 0 to 4 every morning from day 1 of modeling, with the scoring criteria as shown in Table 28. The 3 were added up to obtain a total score, i.e., a total PASI score. The ear thickness of the left ear of the mouse was measured using a digital vernier caliper three times every morning from day 1 of modeling, to obtain a mean value.

[2] = system: LPS/IL-1β-induced IL-6 secretion in human peripheral blood mononuclear cells (PBMCs); assay: Inhibition of LPS/IL-1β-induced IL-6 secretion in human PBMCs (IL-6 ELISA); assay type: cell-based; conditions: PBMC, LPS 10 ng/mL + IL-1β 20 ng/mL, 24 h pre-incubation, 20 h stimulation
Procedure, shortened: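 PBMCs preincubated 24 h at 37 °C with compounds (5-fold dilutions from 1 μM) in RPMI/10% FBS, then stimulated 20 h with LPS 10 ng/mL plus IL-1β 20 ng/mL (final). IL-6 in 200-fold diluted supernatant measured by ELISA at OD450 against a standard curve; IC50 from dose-response fitting.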

[3] = Metabolic stability in human liver microsome; assay type: in vitro ADME; conditions: liver microsomes, NADPH, 60 min, read-out: Human liver microsome (t1/2, min)
Procedure: Clean incubation plates T60 and NCF60 were preheated at 37° C. for 10 min. Liver microsomes were diluted to a concentration of 0.56 mg/mL with 100 mM phosphate buffer, and 445 μL of the microsome working solution (0.56 mg/mL) was transferred to the preheated incubation plates T60 and NCF60, followed by incubation of the plates T60 and NCF60 with continuous shaking at 37° C. for 10 min. After incubation, 54 μL of liver microsomes were transferred to a blank plate, 6 μL of NAPDH cofactor was added to the blank plate, and then 180 μL of quenching solution was added to the blank plate. 5 μL of the compound working solution (100 μM) was added to the microsome-containing incubation plates T60 and NCF60, and mixed thoroughly 3 times. For plate NCF60, 50 μL of buffer was added and the system was mixed thoroughly 3 times before timing was started, and the plate was incubated with shaking at 37° C. for 60 min. For the quenching plate, 180 μL of quenching solution and 6 μL of NADPH cofactor were added, and the plate was ensured to be cooled to prevent evaporation. For the T60 plate, the mixture was thoroughly mixed 3 times, and 54 μL of the mixture was immediately transferred to the quenching plate at the time point of 0 min. Then 44 μL of the NAPDH cofactor was added to the incubation plate (T60). Timing was started, and the plate was incubated with shaking at 37° C. for 60 min. At the time points of 5, 15, 30, 45, and 60 min, 180 μL of the quenching solution was added to the quenching plate respectively, mixed once, and 60 μL of sample was continuously transferred from the plate T60 to the quenching plate at each time point. For plate NCF60, after mixing once, 60 μL of the sample was transferred from incubation plate NCF60 to the quenching plate containing quenching solution at the 60-min time point. All sampling plates were shaken for 10 min, then centrifuged at 4000 rpm at 4° C. for 20 min. 80 μL of the supernatant was transferred to 240 μL of HPLC water, and mixed using a plate shaker for 10 min. Each bioanalytical plate was sealed and shaken for 10 min before LC-MS/MS analysis.

[4] = system: R848-induced IL-6 secretion in human peripheral blood mononuclear cells (PBMCs); assay: Inhibition of R848-induced IL-6 secretion in human PBMCs (IL-6 ELISA); assay type: cell-based; conditions: PBMC, R848 2.5 μg/mL, 20 h pre-incubation, 24 h stimulation
Procedure: This experiment was carried out in RPMI 1640 medium containing 10% FBS and 1% penicillin/streptomycin, with each of the compounds at an initial test concentration of 1 μM. The compound was dissolved in DMSO to prepare a stock solution, which was serially diluted into a series of working solutions with a 4-fold concentration gradient using the culture medium and then added to a 96-well plate at 10 μL per well. PBMCs (Batch No.: P122101102C; Milecell Biotechnology Inc.) were counted and diluted to a cell concentration of 1.25×10^6 cells/mL, and then added to the aforementioned compound-containing 96-well plate at 160 μL per well. The system was mixed well and incubated in a 5% CO2 incubator at 37° C. for 20 h. Then 10 μL of R848 (final concentration: 2.5 μg/mL) was added, and the culture was continued for 24 h in a 5% CO2 incubator at 37° C. After incubation, the 96-well plate was centrifuged at 2000 rpm for 4 min. The supernatant was collected and diluted 120-fold, then detected using an IL-6 ELISA kit. The OD450 values were read, and converted to IL-6 concentrations based on a standard curve.

[5] = molecular target: T1, IRAK4 (Homo sapiens, UniProt Q9NWZ3); assay: IRAK4 protein degradation in THP1 cells (Western blot); assay type: cell-based; conditions: THP-1 cells, 24 h
T1 construct: Effect of the Compounds on IRAK4 Protein Degradation in THP1 Cells; endogenous in cells; host or cells: THP-1 cells
T1 sequence (Q9NWZ3 1-460): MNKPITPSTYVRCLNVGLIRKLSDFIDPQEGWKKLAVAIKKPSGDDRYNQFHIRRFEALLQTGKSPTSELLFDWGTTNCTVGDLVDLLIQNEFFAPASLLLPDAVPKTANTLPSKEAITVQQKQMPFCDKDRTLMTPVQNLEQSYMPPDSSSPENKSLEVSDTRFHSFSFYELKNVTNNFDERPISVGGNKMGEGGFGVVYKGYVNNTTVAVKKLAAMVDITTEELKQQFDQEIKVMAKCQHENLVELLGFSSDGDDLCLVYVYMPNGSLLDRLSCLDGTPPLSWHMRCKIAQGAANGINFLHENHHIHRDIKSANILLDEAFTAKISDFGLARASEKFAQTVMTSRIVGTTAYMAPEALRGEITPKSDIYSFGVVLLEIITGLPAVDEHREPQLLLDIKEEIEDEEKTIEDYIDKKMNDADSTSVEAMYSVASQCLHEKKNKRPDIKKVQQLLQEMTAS
Procedure, shortened: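 THP-1 cells (2×10^5/well) were treated with 5-fold serial compound dilutions for 24 h at 37 °C, then lysed with proteasome/phosphatase inhibitors. IRAK4 was detected by Western blot with chemiluminescence and semi-quantified by densitometry. DC50 came from the concentration–response.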

| Compound | IC50 [2] | IC50 [4] | DC50 [5] | also measured |
| --- | --- | --- | --- | --- |
| CCC(=O)O[C@]1(C(=O)CCl)[C@@H](C)C[C@H]2[C@@H]3CCC4=CC(=O)C=C[C@]4(C)[C@@]3(F)[C@@H](O)C[C@@]21C [CLO, Clobetasol propionate, reference compound] |  |  |  | PASI Score d 6 ([1]; 160 mg/animal): 1.17 ± 0.85; ΔSkin Thickness Change (μm) d 6 ([1]; 160 mg/animal): −18.10 ± 6.33 μm |
| CN(C)c1cc2nn([C@H]3CC[C@H](CN4CC[C@H](n5cc6cc(F)c(C7CCC(=O)NC7=O)cc6n5)[C@@H](F)C4)CC3)cc2cc1NC(=O)c1cnn2cccnc12 (stereo partly shown) [TM-138] | 6.96 nM |  |  | half-life at 1 µM [3]: 91 min |
| CN(C)c1cc2nn([C@H]3CC[C@H](CN4CCC(c5nc6cc(N7CCC(=O)NC7=O)ccc6o5)CC4)CC3)cc2cc1NC(=O)c1cnn2cccnc12 [TM-185] |  | 8.82 nM | 3.22 nM |  |
| CN(C)c1cc2nn([C@H]3CC[C@H](CN4CC[C@H](n5cc6cc(F)c(C7CCC(=O)NC7=O)cc6n5)[C@H](F)C4)CC3)cc2cc1NC(=O)c1cnn2cccnc12 (stereo partly shown) [TM-136] | 6.63 nM |  | 1.71 nM | half-life at 1 µM [3]: 101 min |
| CN(C)c1cc2nn([C@H]3CC[C@H](CN4CCC[C@@H](n5cc6cc(N7CCC(=O)NC7=O)ccc6n5)C4)CC3)cc2cc1NC(=O)c1cnn2cccnc12 [TM-211] |  | 1.73 nM | 3.23 nM |  |
| CN(C)c1cc2nn([C@H]3CC[C@H](CN4C[C@@H](F)[C@@H](n5cc6ccc(N7CCC(=O)NC7=O)cc6n5)C4)CC3)cc2cc1NC(=O)c1cnn2cccnc12 [TM-202] |  | 3.61 nM | 0.95 nM |  |
| CN(C)c1cc2nn([C@H]3CC[C@H](CN4CCC(n5cc6cc(NC7CCC(=O)NC7=O)ccc6n5)CC4)CC3)cc2cc1NC(=O)c1cnn2cccnc12 (stereo partly shown) [TM-196] |  | 2.94 nM | 2.84 nM |  |
| CN(C)c1cc2nn([C@H]3CC[C@H](CN4C[C@@H](n5cc6ccc(N7CCC(=O)NC7=O)cc6n5)[C@@H](F)C4)CC3)cc2cc1NC(=O)c1cnn2cccnc12 [TM-199] |  | 25.6 nM | 0.87 nM |  |
| CN(C)c1cc2nn([C@H]3CC[C@H](CN4CCC(n5cc6cc(F)c(C7CCC(=O)NC7=O)cc6n5)CC4)CC3)cc2cc1NC(=O)c1cnn2cccnc12 (stereo partly shown) [TM-6] | 1.15 nM |  | 0.7 nM | half-life at 1 µM [3]: 124 min |
| CN(C)c1cc2nc([C@H]3CC[C@H](CN4C[C@@H](n5cc6cc(N7CCC(=O)NC7=O)ccc6n5)[C@@H](F)C4)CC3)cn2cc1NC(=O)c1cnn2cccnc12 [TM-230] |  | 6.97 nM | 1.42 nM |  |
| CN(C)c1cc2nn([C@H]3CC[C@H](CN4C[C@@H](n5cc6cc(C7CCC(=O)NC7=O)ccc6n5)[C@@H](F)C4)CC3)cc2cc1NC(=O)c1cnn2cccnc12 (stereo partly shown) [TM-234] | 8.16 nM | 14.4 nM |  |  |
| CN(C)c1cc2nn([C@H]3CC[C@H](CN4CC[C@@H](n5cc6cc(C7CCC(=O)NC7=O)c(F)cc6n5)[C@H](F)C4)CC3)cc2cc1NC(=O)c1cnn2cccnc12 (stereo partly shown) [TM-133] | 3.55 nM |  | 1.6 nM | half-life at 1 µM [3]: 107 min |
| Deucravacitinib [TYKi, reference compound] |  |  |  | PASI Score d 6 ([1]; 30 mg/kg, BID): 4.32 ± 2.42; ΔSkin Thickness Change (μm) d 6 ([1]; 30 mg/kg, BID): 53.57 ± 15.87 μm |
| CN(C)c1cc2nc([C@H]3CC[C@H](CN4CCC(n5cc6c(F)cc(N7CCC(=O)NC7=O)cc6n5)CC4)CC3)cn2cc1NC(=O)c1cnn2cccnc12 [TM-231] |  | 11.6 nM | < 1 nM |  |
| CN(C)c1cc2nn([C@H]3CC[C@H](CN4CC[C@H](n5cc6ccc(N7CCC(=O)NC7=O)cc6n5)C4)CC3)cc2cc1NC(=O)c1cnn2cccnc12 [TM-197] |  | 4.93 nM | 3.29 nM |  |
| CN(C)c1cc2nn([C@H]3CC[C@H](CN4CC[C@@H](n5cc6cc(F)c(C7CCC(=O)NC7=O)cc6n5)[C@H](F)C4)CC3)cc2cc1NC(=O)c1cnn2cccnc12 (stereo partly shown) [TM-137] | 2.4 nM |  | 9.41 nM | half-life at 1 µM [3]: 92.3 min |
| CN(C)c1cc2nn([C@H]3CC[C@H](CN4CC[C@@H](n5cc6cc(C7CCC(=O)NC7=O)ccc6n5)[C@H](F)C4)CC3)cc2cc1NC(=O)c1cnn2cccnc12 (stereo partly shown) [TM-167] |  | 4.3 nM | 1.17 nM |  |
| CN(C)c1cc2nn(C3CCC(CN4C[C@@H](F)[C@H](n5cc6cc(N7CCC(=O)NC7=O)ccc6n5)C4)CC3)cc2cc1NC(=O)c1cnn2cccnc12 (stereo partly shown) [TM-208] |  | 10.8 nM | 3.77 nM |  |
| CN(C)c1cc2nn([C@H]3CC[C@H](CN4C[C@@H](F)[C@@H](n5cc6cc(N7CCC(=O)NC7=O)c(F)cc6n5)C4)CC3)cc2cc1NC(=O)c1cnn2cccnc12 [TM-239] | 7.31 nM | 10.4 nM |  |  |
| CN(C)c1cc2nn([C@H]3CC[C@H](CN4C[C@H](F)[C@@H](n5cc6cc(C7CCC(=O)NC7=O)ccc6n5)C4)CC3)cc2cc1NC(=O)c1cnn2cccnc12 (stereo partly shown) [TM-243] | 3.96 nM | 7.67 nM |  |  |
| CN(C)c1cc2nn([C@H]3CC[C@H](CN4CC[C@@H](n5cc6ccc(N7CCC(=O)NC7=O)cc6n5)C4)CC3)cc2cc1NC(=O)c1cnn2cccnc12 [TM-198] |  | 20.8 nM | 0.86 nM |  |
